Key:
THP-1 cells = assay: Example D: LPS-triggered THP-1 cell death assay, acute/5-hour and chronic/48-hour; type: cell-based, Human; details: 10 ng/ml LPS, 0.1 μM test compound, 48 hours
Method: Compounds of the invention were tested at 0.1 μM versus AC in the LPS-triggered THP-1 cell death assay. Both acute/5-hour and chronic/48-hour phases of cell death were assessed. Compounds were screened in batches with DMSO as the negative control and AC as the high activity control.

[1] = tested on: PC-3 prostate cancer cells; assay: Example T: sensitisation of PC-3 cells to doxorubicin, oxaliplatin, paclitaxel or vincristine, Wst1; type: cell-based, human; details: PC-3 cells, 72 hours
[2] = tested on: 4T1 murine breast cancer cells; assay: Example S: in vitro anticancer screen, 4T1 cells, Wst1; type: cell-based, mouse; details: Mus musculus, 4T1, 18 h, 18 hr, Wst1; for viability at 1 µM: read-out: 4T1 1 μM, percent of cancer cell survival relative to vehicle treated cells; for viability at 5 µM: read-out: 4T1 5 μM, percent of cancer cell survival relative to vehicle treated cells
Method: Anticancer activity against 4T1 murine breast cancer cells cancer cells was assessed in vitro by seeding 1×10^4 cells/well in flat bottom culture plates, then treating with selected 1 μM or 5 μM concentrations of compounds for 18 hr after plating. Then 10 μL of Wst1 dye reagent, a tetrazolium dye indicator for […], was added/well and incubated approximately 2 hr before being assayed on the Biotek EL800 Universal microplate reader (450 nm, reference 630 nm).
Numerical values in the Table 37 represent percent of cancer cell survival relative to vehicle treated cells at the indicated concentrations, with values under 100 indicating anticancer cytotoxic activity at the drugs concentrations tested.

SMILES | Viable cell percent change, Chronic/48-hour, Mean (THP-1 cells) [%] | viability at 1 µM [2] [%] | viability at 5 µM [2] [%] | further results
c1ccc(CCOc2cccc(CNc3ccnc4ccccc34)c2)cc1 [DV, N-(3-Phenethoxybenzyl)quinolin-4-amine] | 24.69 | – | – | viability at 0.4 µM ([1]; Homo sapiens, compound 0.4 μM alone, Wst1, vehicle = 100, read-out: No Chemo: percent cell survival): 31.6%; Doxorubicin 3.5 μM: percent cell survival ([1]; compound 0.4 μM + doxorubicin 3.5 μM, chemotherapy agent alone normalized to 100%): 76.7%; Oxaliplatin 100 μM: percent cell survival ([1]; compound 0.4 μM + oxaliplatin 100 μM, chemotherapy agent alone normalized to 100%): 61.9%; Paclitaxel 50 μM: percent cell survival ([1]; compound 0.4 μM + paclitaxel 50 μM, chemotherapy agent alone normalized to 100%): 23.3%; Vincristine 100 nM: percent cell survival ([1]; compound 0.4 μM + vincristine 100 nM, chemotherapy agent alone normalized to 100%): 32.2%
O=C(NCCCCNc1ccnc2ccccc12)c1ccccc1 [DW, N-[4-(Quinolin-4-ylamino)butyl]benzamide] | 73.97 | 102 | 194 | –
CCCCCCOCCCCCCCCNc1cnc2ccccc2n1 [FU, N-[8-(Hexyloxy)octyl]quinoxalin-2-amine] | – | 118 | 106 | –
CCCCCCOCCCCCCCCn1cnc2cccnc21 [FX, 3-[8-(Hexyloxy)octyl]-3H-imidazo[4,5-b]pyridine] | – | 112 | 96.6 | –
CCCCCCOCCCCCCCCNc1ccnc2c(C(F)(F)F)cccc12 [CN, N-[8-(Hexyloxy)octyl]-8-(trifluoromethyl)quinolin-4-amine] | 3.70 | 32.5 | 18.8 | –
COCCNc1ccnc2ccccc12 [BR, N-(2-Methoxyethyl)quinolin-4-amine] | – | 106 | 122 | –
COc1ccc(Nc2ccnc3ccccc23)cc1 [DI, N-(4-Methoxyphenyl)quinolin-4-amine] | 82.24 | 108 | 126 | –
CCCCCCOCCCCCCCCNc1cccc2cccnc12 [EM, N-[8-(Hexyloxy)octyl]quinolin-8-amine] | – | 106 | 93 | –
CCCCCCOCCCCCCCCNc1ccc2ncccc2c1 [EK, N-[8-(Hexyloxy)octyl]quinolin-6-amine] | 15.50 | 116 | 114 | –
c1ccc(-c2ccc(Nc3ccnc4ccccc34)cc2)cc1 [DC, N-(Biphenyl-4-yl)quinolin-4-amine] | 87.66 | 110 | 96.7 | –
CCCCCCCCCCOc1cccc(CNc2ncnc3ccccc23)c1 [CG, N-[3-(Decyloxy)benzyl]quinazolin-4-amine] | 54.66 | – | – | –
O=C(NCCCNc1ccnc2ccccc12)c1ccccc1 [BT, N-[3-(Quinolin-4-ylamino)propyl]benzamide] | 66.98 | 119 | 121 | –
CCCCCCOc1ccccc1C(=O)NCCCCNc1ccnc2ccccc12 [ED, 2-(Hexyloxy)-N-[4-(quinolin-4-ylamino)butyl]benzamide] | 81.40 | – | – | –
c1ccc2c(NCCN3CCOCC3)ccnc2c1 [BS, N-[2-(Morpholin-4-yl)ethyl]quinolin-4-amine] | – | 105 | 117 | –
CCN(CC)CCNC(=O)c1ccc(Nc2ccnc3ccccc23)cc1 [BW, N-(2-Diethylaminoethyl)-4-(quinolin-4-ylamino)benzamide] | 36.08 | 123 | 236 | –
CCCCCCOCCCCCCCCNc1ccccn1 [FP, N-[8-(Hexyloxy)octyl]pyridin-2-amine] | 30.44 | 116 | 116 | –
CCCCCCOCCCCCCCCn1cnc2ccccc21 [CC, 1-[8-(Hexyloxy)octyl]-1H-benzimidazole] | – | 110 | 99.5 | –
CCCCCCOCCCCCCCCNc1cnccn1 [FV, N-[8-(Hexyloxy)octyl]pyrazin-2-amine] | 17.51 | 104 | 101 | –

SMILES | Viable cell percent change, Chronic/48-hour, Mean (THP-1 cells) [%] | viability at 1 µM [2] [%] | viability at 5 µM [2] [%] | further results
CCCCCCCCCCCCCCCCn1cnc2cnccc21 [FM, 1-Hexadecyl-1H-imidazo[4,5-c]pyridine] | 9.74 | – | – | –
c1ccc(CNc2ccnc3ccccc23)cc1 [DQ, N-Benzylquinolin-4-amine] | 32.31 | 99.5 | 122 | –
CCCCCCOCCCCCCCCNc1cccnc1 [FO, N-[8-(Hexyloxy)octyl]pyridin-3-amine] | 20.18 | 106 | 146 | –
CCCCCCOCCCCCCCCNc1ncccn1 [FQ] | 25.62 | 110 | 98 | –
CCCCCCOCCCCCCCCNc1nccc2ccccc12 [FS, N-[8-(Hexyloxy)octyl]isoquinolin-1-amine] | – | 122 | 107 | –
COCCCCCCCCNc1ccncc1 [FN, N-(8-Methoxyoctyl)pyridin-4-amine] | 3.54 | 92.9 | 79.4 | –
CCCCCC(=O)Nc1ccc(Nc2ccnc3ccccc23)cc1 [DG, N-[4-(Quinolin-4-ylamino)phenyl]hexanamide] | 37.90 | 105 | 94.7 | –
CN(C)c1ccc(CNc2ccnc3ccccc23)cc1 [BX, N-(4-Dimethylaminobenzyl)quinolin-4-amine] | 25.10 | 116 | 116 | –
CCCCCCCCCCOc1ccc(CNc2ccnc3ccccc23)cc1 [DT, N-[4-(Decyloxy)benzyl]quinolin-4-amine] | 16.12 | – | – | –
c1ccc2c(NCc3ccncc3)ccnc2c1 [BZ, N-(Pyridin-4-ylmethyl)quinolin-4-amine] | 30.72 | 122 | 260 | –
O=C(NCCCCCCNc1ccnc2ccccc12)c1ccccc1 [DX, N-[6-(Quinolin-4-ylamino)hexyl]benzamide] | 59.95 | 112 | 105 | –
CCCCCCOCCCCCCCC(=O)NCc1ccncc1 [CA, N-(Pyridin-4-ylmethyl)-8-(hexyloxy)octanamide] | – | 108 | 109 | –
CCCCOc1ccc(Nc2ccnc3ccccc23)cc1 [DK, N-(4-Butoxyphenyl)quinolin-4-amine] | 73.60 | 102 | 87.6 | –
c1ccc(CNc2ccnc3ccccc23)nc1 [EH, N-(Pyridin-2-ylmethyl)quinolin-4-amine] | 32.85 | 116 | 128 | –
CCCCC(OC(C)=O)c1nc2c(N)nc3ccccc3c2n1CC(C)C (stereo not shown) [FC, 1-(4-Amino-1-isobutyl-1H-imidazo[4,5-c]quinolin-2-yl)pentyl acetate] | – | 115 | 123 | –
CCCCCCOCCCCCCCCNc1cc(C(F)(F)F)nc2ccccc12 [EN, N-[8-(Hexyloxy)octyl]-2-(trifluoromethyl)quinolin-4-amine] | 6.64 | 93.3 | 89.8 | –
CCCCCCOCCCCCCCC(=O)Nc1ccc2ncccc2c1 [CB, N-(Quinolin-6-yl)-8-(hexyloxy)octanamide] | 10.62 | 105 | 102 | –
CCCCCC(=O)Nc1cccc(Nc2ccnc3ccccc23)c1 [DH, N-[3-(Quinolin-4-ylamino)phenyl]hexanamide] | 50.89 | 96.6 | 112 | –

— patent US20250034139A1, “AMINE COMPOUNDS HAVING ANTI-INFLAMMATORY, ANTIFUNGAL, ANTIPARASITIC, AND ANTICANCER ACTIVITY” (PHARMA CINQ, LLC, priority 2013, published 2025)
